In BindingDB's records for doi:10.3109/14756366.2012.763163 (Atatürk University, 2014) one finds Ki data, which are given here for 7 compounds.

In one assay the target is Carbonic anhydrase 1 (Homo sapiens, UniProt P00915). Briefly: Esterase Activity Assay. The note with it: pH 7.4; 25 °C. The procedure:
(§1) CA activity was assayed by following the change in absorbance at 348 nm of 4-nitrophenylacetate (NPA) to 4-nitrophenylate ion over a period of 3 min at 25 °C using a spectrophotometer (Shimadzu, UVmini-1240 UV-VIS spectrophotometer) according to the method described by Verpoorte et al.37 The enzymatic reaction contained 1.4mL 0.05M Tris-SO4 buffer (pH 7.4), 1mL 3mM 4-NPA, 0.5mL H2O and 0.1mL enzyme solution (total volume, 3.0 mL). A reference measurement was obtained bypreparing the mixture without the enzyme solution. All measurements were recorded in triplicate.

The target of the next assay is Carbonic anhydrase 2 (Homo sapiens, UniProt P00918). The assay can be described thus: Esterase Activity Assay. The note with it: pH 7.4; 25 °C. The procedure:
as §1

Each structure is given as a SMILES string. Where a name gives a salt, the structure may show the parent alone.

Sequence of Carbonic anhydrase 1 (P00915 whole entry): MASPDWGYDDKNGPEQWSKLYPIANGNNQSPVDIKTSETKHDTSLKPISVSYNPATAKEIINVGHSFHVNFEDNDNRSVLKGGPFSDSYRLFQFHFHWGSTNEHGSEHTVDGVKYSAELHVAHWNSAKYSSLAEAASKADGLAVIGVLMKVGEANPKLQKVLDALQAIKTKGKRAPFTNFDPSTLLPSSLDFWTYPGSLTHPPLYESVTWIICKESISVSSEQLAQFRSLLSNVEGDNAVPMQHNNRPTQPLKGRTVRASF

What is called Ki is the equilibrium dissociation constant of an inhibitor or competing ligand from its target. Low values mean tighter binding, high ones weaker binding. On to `COc1ccc(C(N)c2ccc(OC)c(OC)c2)cc1OC` [bis(3,4-dimethoxyphenyl)methanamine hydrochloride (22)], for which the Ki at Carbonic anhydrase 1 was 13.7 µM; at Carbonic anhydrase 2, 15.6 µM.

For the compound `COc1ccc(C(NS(C)(=O)=O)c2cccc(OC)c2OC)cc1OC` (centres undefined) [N-((2,3-dimethoxyphenyl)(3,4-dimethoxyphenyl)methyl)methanesulfonamide (28)], the Ki turned out to be 3.68 µM on Carbonic anhydrase 1 and 9.23 µM at Carbonic anhydrase 2.

On to `COc1ccc(C(N)c2ccc(OC)c(OC)c2)c(OC)c1` (centres undefined) [(2,4-Dimethoxyphenyl)(3,4-dimethoxyphenyl)methanamine hydrochloride (23)], for which the Ki at Carbonic anhydrase 1 came out at 36 µM; at Carbonic anhydrase 2 it was 34.3 µM.

With `COc1ccc(C(NS(C)(=O)=O)c2ccc(OC)c(OC)c2)cc1OC` [N-(bis(3,4-dimethoxyphenyl)methyl)methanesulfonamide (26)], the Ki at Carbonic anhydrase 1 is 25.6 µM; on Carbonic anhydrase 2, 18.1 µM.

As to `COc1ccc(C(N)c2cc(OC)c(OC)cc2C)cc1OC` (centres undefined) [(4,5-Dimethoxy-2-methylphenyl)(3,4-dimethoxyphenyl)methanamine hydrochloride (24)], the Ki on Carbonic anhydrase 1 stood at 39.5 µM; on Carbonic anhydrase 2, 47.6 µM.

On to `COc1ccc(C(NS(C)(=O)=O)c2cc(OC)c(OC)cc2C)cc1OC` (centres undefined) [N-((4,5-dimethoxy-2-methylphenyl)(3,4-dimethoxyphenyl)methyl)methane sulfonamide (27)], for which the Ki amounted to 48.6 µM at Carbonic anhydrase 1 and 18.9 µM at Carbonic anhydrase 2.

Turning to `COc1ccc(C(N)c2cccc(OC)c2OC)cc1OC` (centres undefined) [(2,3-Dimethoxyphenyl)(3,4-dimethoxyphenyl)methanamine hydrochloride (25)], the Ki on Carbonic anhydrase 1 is 66.9 µM; at Carbonic anhydrase 2, 73.3 µM.
